Earlier results, collected in patent publication US12569513B1, “Stable, highly pure L-cysteine compositions for injection and methods of use” (priority 2019, dated 2026).
Converted amounts (≈) assume the structure as drawn.

N[C@@H](CS)C(=O)O [L-Cysteine, 2-Amino-3-sulfhydrylpropanoic acid]
solubility: 50 mg/mL (≈ 413 mM)
